From patent publication US9243254B2, “Method for transforming a bacterium belonging to the streptococcus genus by natural competence” (priority 2009, dated 2016) come the findings set out here.

Experiment [1] deals with S. salivarius JIM8777. The experiment is described as follows: Natural transformation in CDM upon addition of synthetic peptide. The class given is cell-based, Streptococcus salivarius. The method, then:
Similarly to the protocol used in example 4, strains LMD-9, LMG18311, CNRZ1066 and JIM8777 were pre-cultivated in M17-lactose medium. The cells of the precultures were harvested (5000 g, 9 minutes, 20° C.) and washed twice in CDM and then resuspended in CDM. The washed cells were diluted in fresh CDM medium to obtain an optical density of 0.05, and then incubated at 37° C. After 1.5 h of incubation, in one set of experiment, 1 μM of one of the tested synthetic peptides and 1 μg/mL of pGIUD0855ery DNA (in case of S. thermophilus strains), or 1 μg/ml of pG+host09 DNA (in case of S. salivarius strains) were added to the culture, whereas 1 μg/mL of DNA but no synthetic peptide was added to the second set of experiment. The cultures were grown during 6 hours and serial dilutions were plated on the surface of M17-lactose agar medium containing 2.5 μg/mL of erythromycin to measure transformation efficiency. Transformed S. thermophilus and S. salivarius cells are selected at 37° C. and 29° C., respectively.
Day 2: • Centrifuge Day 1—culture (centrifugation parameters: 5000 g, 9 minutes, 15° C.) and perform two washing steps with one volume (10 mL) of CDM (centrifugation parameters: 5000 g, 9 minutes, 15° C.). • Dilute the culture in 10 mL CDM to obtain an OD600nm of 0.05. • A small volume of S. thermophilus cultures (300 μL) is then transferred in white microplate with a transparent bottom (655095; Greiner, Alphen aid Rijn, The Netherlands) and is grown at 37° C. Luminescence at 595 nm and optical density at 600 nm are recorded with the automatic Synergy HT multi-mode microplate reader. The luciferase activity catalysed by LuxAB requires the presence of nonanal as substrate. In this experimental set-up, nonanal (Acros Organics ref. 204-688-5) is supplied to the cultures by placing 50 μL of a solution containing 1% nonanal diluted in mineral oil in the spaces between the wells of a covered microplate (11). The nonanal present in the solution will become volatile and there will be an equilibrium between the concentration of nonanal present in the air and in the culture samples. The luminescence and absorbance are scanned every 10 minutes during 6 hours. • To perform a competence experiment, 1 μg of donor DNA is added in the 300 μL samples in the beginning of incubation. […] In case of the sample that received DNA, make different 10-fold dilutions of the sample and plate 100 μL on the same solid selective medium. Check the viability of the cells in the samples by plating 10 μL of serial 10-fold dilutions of the cultures on M17, lactose 1% medium. Transformants are picked following 24 h of incubation at 37° C. in anaerobic conditions (gaspak BBL). […]

Experiment [2] deals with various S. thermophilus strains. The experiment is described as follows: Competence induction over the panel of S. thermophilus strains (summary of Table 9). The experiment is classed as cell-based, Streptococcus thermophilus. How it is done: Similarly to the protocol used in example 4, various S. thermophilus strains, including LMD-9, CNRZ1066 and LMG18311 used as controls, were pre-cultivated in M17-lactose medium. The cells of the precultures were harvested (5000 g, 9 minutes, 20° C.) and washed twice in CDM and then resuspended in CDM. The washed cells were diluted in fresh CDM medium to obtain an optical density of 0.05, and then incubated at 37° C. After 1.5 h of incubation, in one set of experiment, 1 μM of one of the tested synthetic peptides (LPYFAGCL) (SEQ ID NO: 85) and 1 μg/mL of pGIUD0855cat DNA were added to the culture, whereas 1 μg/mL of DNA but no synthetic peptide was added to the second set of experiment. Plasmid pGIUD0855cat is a pUC18-derivative containing a chloramphenicol resistance cassette flanked by 1-kb fragments corresponding to the upstream and downstream regions of stu0855. Upon transformation, it promotes the genetic replacement of stu0855 by P32-cat through homologous recombination (FIG. 7). The cultures were grown during 6 hours and serial dilutions were plated on the surface of M17-lactose agar medium containing 5 μg/mL of chloramphenicol to measure transformation efficiency. Transformed S. thermophilus cells were selected at 37° C.; when transformants were obtained, the transformation efficiency was calculated and is given in Table 9.

As for PYFAGCL (fragment), the “Transformation rate, With peptide addition” value in experiment [1] (1 μM PYFAGCL, 1 μg/mL pG+host9) is 3.07 × 10^−6. In addition, the “Complementation of the transformation defect in CDM” value in experiment [1] (1 μM peptide, result in words) is listed as “complements the transformation defect”.
As for “LPYFAGCL (fragment) [synthetic peptide corresponding to a C-terminal fragment of Shp316]”, the “Improvement of the efficiency of transformation by the addition of the peptide” value in experiment [2] (1 μM LPYFAGCL versus no peptide) is “up to 6 Log”. The “Number of strains competent when CDM is supplemented with the peptide” value in experiment [2] (1 μM LPYFAGCL, 9 competent without peptide) turned out to be 19 strains. Moreover, in experiment [2] (out of the 19 competent strains), the “Number of strains whose efficiency of transformation was greatly improved by the addition of the peptide” value was found to be 17 strains.
